Results: patent US20080268533A1, “Methods and Compositions Utilizing Myc and Gsk3Beta to Manipulate the Pluripotency of Embryonic Stem Cells” (University of Georgia Research Foundation, Inc., priority 2004, published 2008)

What was measured:
myc^T58AER cells = conditions: 4OHT (−LIF) versus LIF maintained cells, 14-day period
Experimental: For long-term maintenance, mycER and myc^T58AER mouse ES cells were grown in ES complete media supplemented with 4-hydroxytomoxifen (4OHT) (100 nM or 2-10 nM, respectively) and re-fed every second day. For differentiation of ES cells as embryoid bodies (EB), cells were trypsinized and replated on bacteriological dishes at 1.6×10^5 cells/cm^2 and grown in ESC media (−LIF) plus or minus 4OHT to allow for EB formation. Cells were re-fed every second day and expanded after 4 days of culture. mycER cells were passaged by limited trypsinization, avoiding generation of single cell suspensions. AP activity was assayed with Alkaline Phosphatase Substrate Kit I (Vector Laboratories) according to the manufacturers' instructions. LIF titration assays were performed over a range of 0 to 1×10^3 units ESGRO per ml in the presence or absence of 4OHT by plating cells in 24 well plates.

myc^Δ40-178ER cells = experiment: AP activity of dominant negative myc^Δ40-178ER cells with 4OHT; assay type: cell-based, mouse; conditions: +LIF, 4OHT (25 nM), 6-day period, 92% at start
From the text: While ES cell colonies with a typical domed-shape morphology could be maintained in the presence of LIF and in the absence of 4OHT over extended periods (>30 days), upon addition of 4OHT myc^Δ40-178ER cells changed morphology within several days, similar to that seen in spontaneously differentiating cells (data not shown). This coincided with down-regulation of specific transcripts associated with pluripotency such as Nanog and Oct4 together with the upregulation of early mesoderm (brachyury) and neuroectoderm (Sox1) transcripts (FIG. 10A). These trends were confirmed by AP activity assays in which the percentage of AP positive colonies declined from 92% to 45% over a 6-day period in the presence of 4OHT (FIG. 10B). […] This is consistent with the results showing that c-myc has a role in self-renewal and maintenance of pluripotency.

[1] = system: hES BG01 cell lines transfected with c-myc^T58AER; assay type: cell-based
Experimental: To address this question in hESCs, clonal hES BG01 cell lines transfected with a human c-myc^T58AER gene fusion were generated, identical to that used in the previous mESC studies.
To establish a role for c-myc in HESC self-renewal, c-myc activity was enforced by the addition of 4OHT. This experiment was performed to determine whether c-myc could maintain normal HESC growth and morphology on Matrigel for a period of approximately 15 days (3 passages) in the absence of MEF-CM and bFGF, conditions where spontaneous differentiation would be anticipated. Uninduced (−40HT) cells overtly differentiated after approximately 5-6 days in a manner closely resembling untransfected hESCs when grown in the absence of MEF-CM and bFGF on Matrigel, as judged by changes in cell/colony morphology, increased cell spreading, and a reduction in cell packing density (FIGS. 11B and C and data not shown). The cell lines were also analyzed by immunoblot analysis, evaluating levels of c-myc^T58AER, c-myc, and cdk2 (FIG. 11A).
Alkaline phosphatase (AP) activity was used as a read-out to assess whether c-myc maintained hESCs were still pluripotent. 67% of colonies grown with 4OHT were AP positive in contrast to −4OHT cells where only 4% were positive after a 15 day period (FIG. 11D and data not shown). As in mouse ES cells, elevated c-myc activity caused significant cell death (data not shown).

vector alone cell lines = experiment: Self-renewal of vector alone ES cell lines with 4OHT; assay type: cell-based, mouse; conditions: absence of LIF
From the text: Furthermore, authentic c-myc could maintain self-renewal in a similar manner to mycER fusions when expressed constitutively, independently of 4OHT (data not shown).

mycER ES cells = experiment: AP activity of mycER ES cells with 4OHT; assay type: cell-based, mouse
Experimental: In the presence of 4OHT (mycER on), ES cells retained a uniform dome-shaped colony morphology (FIG. 1B), similar to that of LIF maintained cells (data not shown). In contrast, withdrawal of 4OHT promoted a distinct flattening of colonies with a less uniform appearance (FIG. 1C) that correlated with ES cells undergoing differentiation in the absence of LIF (data not shown). The ability of c-myc to promote ES cell self-renewal was confirmed in a LIF titration assay where mycER ES cells were grown in the presence or absence of 4OHT for 6 days in media containing LIF over a range of 0-1×10^3 units per ml and then assayed for AP activity. […] MycER cells were then grown in the presence or absence of 4OHT in the absence of LIF for up to 15 days and assayed for AP activity. […] Including low levels of LIF (7.5 units/ml), that by itself had only a small effect on maintaining AP levels over 15 days, appeared to further delay the loss of AP activity in mycER cells grown with 4OHT.

## CC/C(=C(\c1ccc(O)cc1)c1ccc(OCCN(C)C)cc1)c1ccccc1 [4OHT, 4-hydroxytomoxifen]
myc^T58AER cells
  AP activity: comparable between LIF maintained cells and those grown in the presence of 4OHT
myc^Δ40-178ER cells
  percentage of AP positive colonies: 45%
[1]; 4OHT titration, c-myc^T58AER BG01 cell line
  highest concentration of drug that did not promote c-myc-dependent cell death (optimal): 1 to 5 nM
[1]; c-myc^T58AER hESCs grown with 4OHT, Matrigel, no MEF-CM and bFGF, 15 day period
  colonies AP positive: 67%
Vector alone cell lines
  self-renewal: did not promote self-renewal
mycER ES cells; mycER cells grown in 4OHT, 6 days, entire LIF titration range 0-1×10^3 units per ml
  AP activity (positive): > 90%
mycER ES cells; mycER cells, 14 days, −LIF, in the presence of 4OHT
  AP activity: significantly reduced
